System: P. aeruginosa
Experiment: gNO dose study, colony growth on agar plates
Assay type: cell-based
Procedure: FIG. 7 depicts a Pseudomonas aeruginosa dosage curve for exposure to NO gas with bacteria grown on solid media. Relative percentages of growth of P. aeruginosa colony forming units (cfu) at 50, 80, 120 and 160 parts per million (ppm) of nitric oxide compared with growth of P. aeruginosa cfu in medical air (100%) are shown.
To study the effects of gaseous nitric oxide on potential pathogens, a custom gas exposure incubator was designed and validated for temperature, humidity, and gas concentrations, providing an environment that matches that of a microbiologic incubator, while enabling controlled exposure of precise concentrations of the gas. […] The gNO chamber allowed control and adjustment of following factors in all in vitro studies: gNO dose, total air flow, NO2 levels, O2 levels, CO2 levels, temperature, and humidity. For the initial pilot studies, two strains of bacterial pathogen were selected based on two proposed clinical applications of gNO for respiratory infections and topical application. P. aeruginosa is associated primarily with pulmonary disease, but may also be associated with skin infection such as in severe burns. S. aureus is associated with surface wound infections. Both of these micro-organisms were chosen for the pilot study.
The first step in the process of evaluating the direct effect of gNO on bacteria was to design a simple study to determine what dose, if any, would be an approximate lethal concentration level for microbes. Once an optimal dose was estimated, then a timing study would be conducted. For these initial studies, highly dense inoculums of P. aeruginosa and S. aureus suspensions (10^8 cfu/ml) were plated onto agar plates. These plates were then exposed to various concentrations of gNO in the exposure device in order to evaluate the effect on colony growth.

## [N]=O [gNO, nitric oxide]
24 hours after gNO exposure, controls overgrew
  colony size and number after transfer to a conventional incubator: remained the same in size and number
gNO greater than 120 ppm, agar plates
  time required to achieve the >90% reduction of colony formation: 8 to 12 h
gNO greater than 120 ppm, agar plates, compared with medical air
  reduction of colony formation: greater than 90%
Increasing gNO to 120 ppm, agar plates
  survival: 5-10%

Source: patent publication US8795222B2, “Device and method for treatment of surface infections with nitric oxide” (Pulmonox Technologies Corp., priority 2000, dated 2014)
